Data on 10 compounds can be found in US11028075B2, “Therapeutic compounds and methods of use thereof” (GENENTECH, INC., priority 2018, dated 2021).

Where a name gives a salt, the structure may show the parent alone.

In test [1] the target is T1, hNav1.7 (Homo sapiens (Human), UniProt Q15858). Kind of test: Tritiated compound binding to membranes from cells heterologously expressing hNav1.7 and the β1 subunit (Nav1.7 LBA). The following applies: competitive binding vs [3H]compound, membranes with hNav1.7 and β1 subunit; read-out: Nav1.7 LBA EVO IC50. Summed up:
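Membranes from cells expressing hNav1.7 with β1 were incubated at room temperature with a tritiated competitive Nav1.7 inhibitor plus test compound in 100 mM NaCl, 20 mM Tris pH 7.4, 0.01% BSA; nonspecific binding was set with 1 μM unlabeled compound. Incubation was 18 h with […] radioligand, or 3 h with […]. Bound ligand was filtered and counted, and IC50 came from a 4-parameter fit.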
Target sequence in this assay (Q15858 whole entry, looked up): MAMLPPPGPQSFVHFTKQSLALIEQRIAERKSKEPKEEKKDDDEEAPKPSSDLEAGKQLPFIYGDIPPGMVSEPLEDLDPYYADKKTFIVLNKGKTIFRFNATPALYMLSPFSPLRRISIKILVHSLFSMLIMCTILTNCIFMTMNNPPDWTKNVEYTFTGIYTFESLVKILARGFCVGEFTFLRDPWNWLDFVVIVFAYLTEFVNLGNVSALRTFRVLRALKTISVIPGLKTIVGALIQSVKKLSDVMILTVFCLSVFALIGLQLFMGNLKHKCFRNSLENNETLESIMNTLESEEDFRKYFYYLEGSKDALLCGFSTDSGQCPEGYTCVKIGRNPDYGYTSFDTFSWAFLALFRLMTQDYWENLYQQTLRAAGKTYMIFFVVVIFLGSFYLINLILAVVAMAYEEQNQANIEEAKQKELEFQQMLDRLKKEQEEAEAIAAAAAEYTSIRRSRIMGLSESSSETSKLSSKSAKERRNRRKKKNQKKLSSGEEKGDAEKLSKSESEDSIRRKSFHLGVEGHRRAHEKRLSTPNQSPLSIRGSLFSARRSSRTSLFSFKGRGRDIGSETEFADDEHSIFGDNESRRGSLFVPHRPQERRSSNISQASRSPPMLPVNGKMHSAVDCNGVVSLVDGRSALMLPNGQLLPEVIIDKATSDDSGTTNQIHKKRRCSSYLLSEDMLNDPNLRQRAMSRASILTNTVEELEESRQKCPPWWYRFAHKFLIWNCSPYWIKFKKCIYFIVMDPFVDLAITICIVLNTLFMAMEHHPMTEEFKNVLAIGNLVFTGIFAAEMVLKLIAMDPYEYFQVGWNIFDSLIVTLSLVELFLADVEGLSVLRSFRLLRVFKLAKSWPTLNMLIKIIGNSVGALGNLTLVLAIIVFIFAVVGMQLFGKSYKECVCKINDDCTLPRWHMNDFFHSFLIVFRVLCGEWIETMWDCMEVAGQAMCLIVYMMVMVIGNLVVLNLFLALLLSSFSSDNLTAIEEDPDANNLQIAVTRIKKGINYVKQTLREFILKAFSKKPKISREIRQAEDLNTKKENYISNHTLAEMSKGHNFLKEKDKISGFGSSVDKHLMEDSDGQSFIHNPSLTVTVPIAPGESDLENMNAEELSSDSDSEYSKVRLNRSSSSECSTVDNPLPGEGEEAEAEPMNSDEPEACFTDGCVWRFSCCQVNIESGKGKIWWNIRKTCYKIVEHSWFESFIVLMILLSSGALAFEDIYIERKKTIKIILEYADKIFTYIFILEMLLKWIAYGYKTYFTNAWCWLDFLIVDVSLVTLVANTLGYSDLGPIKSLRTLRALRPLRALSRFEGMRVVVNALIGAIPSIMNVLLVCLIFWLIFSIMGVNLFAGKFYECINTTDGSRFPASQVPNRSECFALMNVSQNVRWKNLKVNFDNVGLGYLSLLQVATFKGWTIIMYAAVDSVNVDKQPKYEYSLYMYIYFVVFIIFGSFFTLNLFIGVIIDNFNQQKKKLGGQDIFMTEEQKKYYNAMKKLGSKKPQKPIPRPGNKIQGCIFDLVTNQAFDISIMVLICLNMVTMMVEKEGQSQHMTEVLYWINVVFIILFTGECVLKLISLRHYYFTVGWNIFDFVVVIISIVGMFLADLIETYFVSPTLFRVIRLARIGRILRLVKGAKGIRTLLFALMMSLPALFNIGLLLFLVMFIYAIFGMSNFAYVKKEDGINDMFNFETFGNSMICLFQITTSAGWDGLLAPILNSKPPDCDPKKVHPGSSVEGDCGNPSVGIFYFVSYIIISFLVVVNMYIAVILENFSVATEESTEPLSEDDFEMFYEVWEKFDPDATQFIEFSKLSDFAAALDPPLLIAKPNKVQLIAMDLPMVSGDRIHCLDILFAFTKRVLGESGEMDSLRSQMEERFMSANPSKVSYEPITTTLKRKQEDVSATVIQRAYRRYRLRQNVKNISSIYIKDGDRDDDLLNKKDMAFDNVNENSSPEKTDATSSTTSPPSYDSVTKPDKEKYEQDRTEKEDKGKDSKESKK
Target sequence in this assay (Q07699 whole entry partner, looked up): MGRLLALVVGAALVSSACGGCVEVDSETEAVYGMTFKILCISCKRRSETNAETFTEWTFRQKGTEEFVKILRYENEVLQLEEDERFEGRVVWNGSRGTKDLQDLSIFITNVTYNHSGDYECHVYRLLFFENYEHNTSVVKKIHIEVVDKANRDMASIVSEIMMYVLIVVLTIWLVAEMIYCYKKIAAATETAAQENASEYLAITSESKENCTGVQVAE

Test [2] has as its target T1, hNav1.7. Kind of test: Electrophysiological assay (EP), voltage clamp on Syncropatch 384PE, CHO cells stably expressing Nav1.7. The following applies: holding potential −50 mV, 7.5 min compound incubation, read-out: EP_SP hNav1.7 EVO IC50. Format: cell-based. The procedure, abridged:
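Whole-cell automated patch clamp was run on CHO cells stably expressing human Nav1.7 cDNA, with internal solution CsCl/EGTA pH 7.2, external solution 80 mM NaCl pH 7.4, and 0.1% Pluronic F-127. From a −50 mV holding potential: −10 mV for 10 ms, −150 mV for 20 ms, then −10 mV for 10 ms, where current was measured. Inhibition was taken after 7.5 min compound incubation, with TTX added for full block.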
Target sequence in this assay (Q15858 other isoform, or with tags, fused parts or gaps): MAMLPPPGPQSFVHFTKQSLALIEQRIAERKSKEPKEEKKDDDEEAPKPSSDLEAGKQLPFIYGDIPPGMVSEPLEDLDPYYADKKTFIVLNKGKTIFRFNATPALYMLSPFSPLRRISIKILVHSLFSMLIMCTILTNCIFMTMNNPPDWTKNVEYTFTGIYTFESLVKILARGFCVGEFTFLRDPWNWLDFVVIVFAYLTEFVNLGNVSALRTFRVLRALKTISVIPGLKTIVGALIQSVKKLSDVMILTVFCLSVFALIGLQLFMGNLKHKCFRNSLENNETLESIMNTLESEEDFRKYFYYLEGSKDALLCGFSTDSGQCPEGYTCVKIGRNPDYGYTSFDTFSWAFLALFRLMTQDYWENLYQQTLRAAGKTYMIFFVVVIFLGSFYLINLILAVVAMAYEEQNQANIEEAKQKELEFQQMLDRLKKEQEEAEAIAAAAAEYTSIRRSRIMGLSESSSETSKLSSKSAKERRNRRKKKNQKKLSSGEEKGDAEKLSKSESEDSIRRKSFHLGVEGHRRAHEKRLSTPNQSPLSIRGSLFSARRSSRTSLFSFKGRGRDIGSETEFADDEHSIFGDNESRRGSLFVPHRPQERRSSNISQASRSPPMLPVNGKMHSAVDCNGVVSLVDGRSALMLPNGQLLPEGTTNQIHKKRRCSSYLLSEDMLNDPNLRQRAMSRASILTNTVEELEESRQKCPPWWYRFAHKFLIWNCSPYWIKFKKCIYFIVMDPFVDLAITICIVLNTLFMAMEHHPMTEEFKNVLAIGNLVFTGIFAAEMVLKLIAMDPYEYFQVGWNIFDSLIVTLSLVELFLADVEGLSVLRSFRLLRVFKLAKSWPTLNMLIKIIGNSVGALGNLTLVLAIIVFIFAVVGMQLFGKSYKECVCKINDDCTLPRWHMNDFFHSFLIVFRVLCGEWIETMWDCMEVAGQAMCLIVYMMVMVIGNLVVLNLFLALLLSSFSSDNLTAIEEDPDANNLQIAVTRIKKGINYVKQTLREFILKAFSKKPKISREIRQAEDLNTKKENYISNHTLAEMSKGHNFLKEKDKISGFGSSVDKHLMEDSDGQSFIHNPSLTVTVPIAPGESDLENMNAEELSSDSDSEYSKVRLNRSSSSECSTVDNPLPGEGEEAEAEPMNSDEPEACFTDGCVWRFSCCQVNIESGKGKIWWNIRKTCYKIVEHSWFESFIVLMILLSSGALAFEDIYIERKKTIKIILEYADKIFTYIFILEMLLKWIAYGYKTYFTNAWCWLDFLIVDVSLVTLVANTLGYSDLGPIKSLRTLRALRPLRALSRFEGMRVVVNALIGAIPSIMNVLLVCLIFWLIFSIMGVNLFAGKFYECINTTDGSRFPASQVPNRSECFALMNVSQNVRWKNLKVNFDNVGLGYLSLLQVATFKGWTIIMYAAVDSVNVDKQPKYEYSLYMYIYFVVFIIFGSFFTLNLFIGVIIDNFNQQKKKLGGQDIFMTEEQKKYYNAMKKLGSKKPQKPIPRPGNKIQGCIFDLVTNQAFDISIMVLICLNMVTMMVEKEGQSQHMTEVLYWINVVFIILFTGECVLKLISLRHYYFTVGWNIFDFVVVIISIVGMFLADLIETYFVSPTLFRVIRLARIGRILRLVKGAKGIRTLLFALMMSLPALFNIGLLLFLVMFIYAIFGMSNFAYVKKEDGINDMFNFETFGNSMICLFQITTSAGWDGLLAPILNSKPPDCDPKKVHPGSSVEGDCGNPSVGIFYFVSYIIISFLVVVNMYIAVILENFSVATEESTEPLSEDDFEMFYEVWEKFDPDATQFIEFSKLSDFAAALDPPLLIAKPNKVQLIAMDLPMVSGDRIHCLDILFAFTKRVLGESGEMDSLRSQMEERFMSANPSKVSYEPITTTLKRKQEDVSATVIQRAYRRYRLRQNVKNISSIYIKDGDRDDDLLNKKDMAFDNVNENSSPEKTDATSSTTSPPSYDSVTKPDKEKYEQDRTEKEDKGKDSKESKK

A word on the IC50: it is the concentration that gives 50% inhibition. Regarding `CN1CC(N(C)[C@H]2C[C@@H](c3cccc(C(F)(F)F)c3)CC[C@@H]2Oc2cc(F)c(S(=O)(=O)Nc3ccncn3)cc2Cl)C1` [Example 81, 5-chloro-2-fluoro-4-(((1S,2S,4S)-2-(methyl(1-methylazetidin-3-yl)amino)-4-(3-(trifluoromethyl)phenyl)cyclohexyl)oxy)-N-(pyrimidin-4-yl)benzenesulfonamide formate], the IC50 on hNav1.7 [1] came out at 0.661 nM; at hNav1.7 [2] it was 0.334 nM.

Regarding `CN(C)[C@H]1C[C@@H](c2cc(Cl)cc(Cl)c2)CC[C@@H]1Oc1cc(F)c(S(=O)(=O)Nc2ccncn2)cc1Cl` [Example 82, 5-chloro-4-(((1S,2S,4S)-4-(3,5-dichlorophenyl)-2-(dimethylamino)cyclohexyl)oxy)-2-fluoro-N-(pyrimidin-4-yl)benzenesulfonamide formate], the IC50 was 1.57 nM on hNav1.7 [1] and 0.355 nM on hNav1.7 [2].

For `CN(C)[C@H]1C[C@@H](c2cccc(C3CCOCC3)c2)CC[C@@H]1Oc1cc(F)c(S(=O)(=O)Nc2ccncn2)cc1Cl` [Example 83], the IC50 is 38.6 nM on hNav1.7 [1] and 6.36 nM on hNav1.7 [2].

With `O=S(=O)(Nc1ccncn1)c1cc(F)c(N[C@H]2CC[C@H](c3ccc(F)c(C(F)(F)F)c3)C[C@@H]2N2CCCC2)cc1F` [Example 84, 2,5-difluoro-4-(((1S,2S,4S)-4-(4-fluoro-3-(trifluoromethyl)phenyl)-2-(pyrrolidin-1-yl)cyclohexyl)-amino)-N-(pyrimidin-4-yl)benzenesulfonamide], the IC50 at hNav1.7 [1] came out at 0.877 nM; on hNav1.7 [2], 0.52 nM.

Regarding `O=S(=O)(Nc1ccncn1)c1cc(F)c(N[C@H]2CC[C@H](c3cc(F)cc(C(F)(F)F)c3)C[C@@H]2N2CCCC2)cc1F` [Example 85, 2,5-difluoro-4-(((1S,2S,4S)-4-(3-fluoro-5-(trifluoromethyl)phenyl)-2-(pyrrolidin-1-yl)cyclohexyl)-amino)-N-(pyrimidin-4-yl)benzenesulfonamide formate], the concentration for half-maximal inhibition (IC50) at hNav1.7 [1] was found to be 2.24 nM; on hNav1.7 [2] it was 0.494 nM.

In the case of `CN(C)[C@H]1C[C@@H](c2cc(C(F)(F)F)ccc2Cl)CC[C@@H]1Oc1cc(F)c(S(=O)(=O)Nc2ccncn2)cc1Cl` [Example 86, 5-chloro-4-(((1S,2S,4S)-4-(2-chloro-5-(trifluoromethyl)phenyl)-2-(dimethylamino)-cyclohexyl)oxy)-2-fluoro-N-(pyrimidin-4-yl)benzenesulfonamide], the IC50 stood at 3.28 nM on hNav1.7 [1] and 0.819 nM at hNav1.7 [2].

Regarding `CN1CC(N[C@H]2C[C@@H](c3cccc(C(F)(F)F)c3)CC[C@@H]2Oc2cc(F)c(S(=O)(=O)Nc3ccncn3)cc2Cl)C1` [Example 87, 5-chloro-2-fluoro-4-(((1S,2S,4S)-2-((1-methylazetidin-3-yl)amino)-4-(3-(trifluoromethyl)phenyl)-cyclohexyl)oxy)-N-(pyrimidin-4-yl)benzenesulfonamide], the results for the IC50 on hNav1.7 [1] and at hNav1.7 [2] were 7.94 nM and 1.18 nM, respectively.

`CN(C)[C@H]1C[C@@H](c2cccc(C(F)(F)F)c2)CC[C@@H]1Nc1c(F)cc(S(=O)(=O)Nc2ccncn2)cc1F` [Example 88, 4-(((1S,2S,4S)-2-(Dimethylamino)-4-(3-(trifluoromethyl)phenyl)cyclohexyl)amino)-3,5-difluoro-N-(pyrimidin-4-yl)benzenesulfonamide]: the half-maximal inhibitory concentration (IC50) on hNav1.7 [1] came to 170 nM; at hNav1.7 [2] it was 17 nM.

In the case of `CN(C)[C@H]1C[C@@H](c2cccc(C(C)(F)F)c2)CC[C@@H]1Oc1cc(F)c(S(=O)(=O)Nc2ccncn2)cc1Cl` [Example 91, 5-chloro-4-(((1S,2S,4S)-4-(3-(1,1-difluoroethyl)phenyl)-2-(dimethylamino)cyclohexyl)oxy)-2-fluoro-N-(pyrimidin-4-yl)benzenesulfonamide], the figures for the IC50 on hNav1.7 [1] and on hNav1.7 [2] were 6.13 nM and 1.2 nM, respectively.

Regarding `CN(C)[C@H]1C[C@@H](c2cccc(C(F)(F)F)c2Cl)CC[C@@H]1Oc1cc(F)c(S(=O)(=O)Nc2ccncn2)cc1Cl` [Example 92, 5-chloro-4-(((1S,2S,4S)-4-(2-chloro-3-(trifluoromethyl)phenyl)-2-(dimethylamino)-cyclohexyl)oxy)-2-fluoro-N-(pyrimidin-4-yl)benzenesulfonamide], the IC50 on hNav1.7 [1] worked out at 55.7 nM; at hNav1.7 [2], 3.99 nM.
